The values below come from patent publication US12545685B2 (Daiichi Sankyo Company, Limited, priority 2011, dated 2026).

T1 sequence (Q00987 25-108 L33E): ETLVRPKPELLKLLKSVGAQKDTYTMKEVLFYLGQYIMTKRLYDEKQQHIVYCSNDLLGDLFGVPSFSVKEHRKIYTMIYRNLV

The test addresses T1, Mdm2/p53 binding (GST-Mdm2 / His-p53) (Homo sapiens, UniProt Q00987, L33E).
T1 construct: Mdm2 partial protein having Mdm2 amino acids at positions 25 to 108
Nature of the test: Mdm2/p53 binding assay (HTRF, His-p53 and GST-Mdm2). Conditions: His-p53 (aa 1-132) and GST-Mdm2 (aa 25-108, L33E) 6.25 nM each; 25°C, 1 hour; values given as ranges. The gist of the method:
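His-p53 (aa 1–132) and GST-Mdm2 (aa 25–108, L33E) were prepared at 6.25 nM each in the protein dilution (20 mM HEPES pH 7.4, 150 mM NaCl, 0.1% BSA). Compound in 10% DMSO buffer and XL665 anti-His/Eu anti-GST antibodies (KF buffer) were added, with 1 h at 25 °C. The 665/620 nm TR-FRET ratio gave T/C and a sigmoid-fitted IC50.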
On the technique in general: TR-FRET usually uses a lanthanide donor and a delayed reading to cut background.
Compound `CNC(=O)C[C@@H]1CC[C@@H](NC(=O)[C@@H]2NC3(CCC(C)(C)CC3)[C@@]3(C(=O)Nc4cc(Cl)ccc43)[C@H]2c2ccnc(Cl)c2F)CO1` [Example 150, (3′R, 4′S,5′R)-6″-chloro-4′-(2-chloro-3-fluoropyridin-4-yl)-4,4-dimethyl-N-{(3R,6S)-6-[2-(methylamino)-2-oxoethyl]tetrahydro-2H-pyran-3-yl}-2″-oxo-1″,2″-dihydrodispiro[cyclohexane-1,2′-pyrrolidine-3′,3″-indole]-5′-carboxamide] yielded an IC50 of 1 to 50 nM. As for `CNC(=O)C[C@@H]1CC[C@@H](NC(=O)[C@@H]2NC3(CC(CF)(CF)C3)[C@@]3(C(=O)Nc4cc(Cl)ccc43)[C@H]2c2cccc(Cl)c2F)CO1` [Example 151, (3′R, 4′S,5′R)-6″-chloro-4′-(3-chloro-2-fluorophenyl)-3,3-bis(fluoromethyl)-N-{(3R,6S)-6-[2-(methylamino)-2-oxoethyl]tetrahydro-2H-pyran-3-yl}=2″-oxo-1″,2″-dihydrodispiro[cyclobutane-1,2′-pyrrolidine-3′,3′-indole]-5′-carboxamide], the figure is 1 to 50 nM. As for `CN(C)C(=O)C[C@@H]1CC[C@@H](NC(=O)[C@@H]2NC3(CCC(C)(C)CC3)[C@@]3(C(=O)Nc4cc(Cl)ccc43)[C@H]2c2ccnc(Cl)c2F)CO1` [Example 152, (3′R, 4′S,5′R)-6″-chloro-4′-(2-chloro-3-fluoropyridin-4-yl)-N-{(3R,6S)-6-[2-(dimethylamino)-2-oxoethyl]tetrahydro-2H-pyran-3-yl}-4,4-dimethyl-2″-oxo-1″,2″-dihydrodispiro[cyclohexane-1,2′-pyrrolidine-3′,3″-indole]-5′-carboxamide], the IC50 was in the range of 1 to 50 nM. In turn, `CN(C)C(=O)C[C@@H]1CC[C@@H](NC(=O)[C@@H]2NC3(CC(CF)(CF)C3)[C@@]3(C(=O)Nc4cc(Cl)ccc43)[C@H]2c2cccc(Cl)c2F)CO1` [Example 153, (3′R, 4′S,5′R)-6″-chloro-4′-(3-chloro-2-fluorophenyl)-N-{(3R,6S)-6-[2-(dimethylamino)-2-oxoethyl]tetrahydro-2H-pyran-3-yl}-3,3-bis(fluoromethyl)-2″-oxo-1″,2″-dihydrodispiro[cyclobutane-1,2′-pyrrolidine-3′,3′-indole]-5′-carboxamide] displayed an IC50 of 1 to 50 nM. In the case of `CC1(C)CCC2(CC1)N[C@@H](C(=O)N[C@H]1CC[C@H](c3nncs3)CC1)[C@H](c1ccnc(Cl)c1F)[C@]21C(=O)Nc2cc(Cl)ccc21` [Example 155, (3′R, 4′S,5′R)-6″-chloro-4′-(2-chloro-3-fluoropyridin-4-yl)-4,4-dimethyl-2″-oxo-N-[trans-4-(1,3,4-thiadiazol-2-yl)cyclohexyl]-1″,2″-dihydrodispiro[cyclohexane-1,2′-pyrrolidine-3′,3″-indole]-5′-carboxamide], the IC50 fell in the range of 50 to 100 nM. As for `NC(=O)[C@@H]1CC[C@@H](NC(=O)[C@@H]2NC3(CC(CF)(CF)C3)[C@@]3(C(=O)Nc4cc(Cl)ccc43)[C@H]2c2ccnc(Cl)c2F)CO1` [Example 158, (3′R, 4′S,5′R)—N-[(3R,6S)-6-carbamoyltetrahydro-2H-pyran-3-yl]-6″-chloro-4′-(2-chloro-3-fluoropyridin-4-yl)-3,3-bis(fluoromethyl)-2″-oxo-1″,2″-dihydrodispiro[cyclobutane-1,2′-pyrrolidine-3′,3″-indole]-5′-carboxamide], the figure is 1 to 50 nM; as for `COCc1nnc([C@H]2CC[C@H](NC(=O)[C@@H]3NC4(CCC(C)(C)CC4)[C@@]4(C(=O)Nc5cc(Cl)ccc54)[C@H]3c3ccnc(Cl)c3F)CC2)o1` [Example 159], 50 to 100 nM. Then `O=C(N[C@@H]1CC[C@@H](CO)OC1)[C@@H]1NC2(CC(CF)(CF)C2)[C@@]2(C(=O)Nc3cc(Cl)c(F)cc32)[C@H]1c1ccnc(Cl)c1F` [Example 163, (3′R, 4′S,5′R)-6″-chloro-4′-(2-chloro-3-fluoropyridin-4-yl)-5″-fluoro-3,3-bis(fluoromethyl)-N-[(3R,6S)-6-(hydroxymethyl)tetrahydro-2H-pyran-3-yl]-2″-oxo-1″,2″-dihydrodispiro[cyclobutane-1,2′-pyrrolidine-3′,3″-indole]-5′-carboxamide], with 50 to 100 nM. In turn, `CC1(C)CCC2(CC1)N[C@@H](C(=O)N[C@@H]1CC[C@@H](CNS(C)(=O)=O)OC1)[C@H](c1ccnc(Cl)c1F)[C@]21C(=O)Nc2cc(Cl)ccc21` [Example 166, (3′R, 4′S,5′R)-6″-chloro-4′-(2-chloro-3-fluoropyridin-4-yl)-4,4-dimethyl-N-[(3R,6S)-6-{[(methylsulfonyl)amino]methyl}tetrahydro-2H-pyran-3-yl]-2″-oxo-1″,2″-dihydrodispiro[cyclohexane-1,2′-pyrrolidine-3′,3″-indole]-5′-carboxamide] showed an IC50 of 50 to 100 nM. The compound `CN(C)C(=O)[C@@H]1CC[C@@H](NC(=O)[C@@H]2NC3(CC(CF)(CF)C3)[C@@]3(C(=O)Nc4cc(Cl)ccc43)[C@H]2c2ccnc(Cl)c2F)CO1` [Example 167, (3′R, 4′S,5′R)-6″-chloro-4′-(2-chloro-3-fluoropyridin-4-yl)-N-[(3R,6S)-6-(dimethylcarbamoyl)tetrahydro-2H-pyran-3-yl]-3,3-bis(fluoromethyl)-2″-oxo-1′″, 2′″-dihydrodispiro[cyclobutane-1,2′-pyrrolidine-3′,3″-indole]-5″-carboxamide] registered a concentration for half-maximal inhibition (IC50) of 1 to 50 nM. Consider `O=C(N[C@@H]1CC[C@@H](CO)OC1)[C@@H]1NC2(CC(CF)(CF)C2)[C@@]2(C(=O)Nc3cc(Cl)ccc32)[C@H]1c1cc(Cl)cc(Cl)c1` [Example 169, (3′R, 4′R, 5′R)-6″-chloro-4′-(3,5-dichlorophenyl)-3,3-bis(fluoromethyl)-N-[(3R,6S)-6-(hydroxymethyl)tetrahydro-2H-pyran-3-yl]-2″-oxo-1″,2″-dihydrodispiro[cyclobutane-1,2′-pyrrolidine-3′,3″-indole]-5′-carboxamide], for which the IC50 fell in the range of 50 to 100 nM.

Regarding `C[C@@H](O)[C@@H]1CC[C@@H](NC(=O)[C@@H]2NC3(CC(CF)(CF)C3)[C@@]3(C(=O)Nc4cc(Cl)ccc43)[C@H]2c2ccnc(Cl)c2F)CO1` [Example 170, (3′R, 4′S,5′R)-6″-chloro-4′-(2-chloro-3-furopyridinyl-4-yl)-3,3-bis(fluoromethyl)-N-{(3R,6S)-6-[(1R)-1-hydroxyethyl]tetrahydro-2H-pyran-3-yl}-2″-oxo-1″,2″-dihydrodispiro[cyclobutane-1,2′-pyrrolidine-3′,3′-indole]-5′-carboxamide], the IC50 fell in the range of 50 to 100 nM. The compound `Cn1cncc1CNC(=O)[C@@H]1NC2(CCC(C)(C)CC2)[C@@]2(C(=O)Nc3cc(Cl)ccc32)[C@H]1c1ccnc(Cl)c1F` [Example 171, (3′R, 4′S, S′R)-6″-chloro-4′-(2-chloro-3-fluoropyridin-4-yl)-4,4-dimethyl-N-[(1-methyl-1H-imidazol-5-yl)methyl]-2″-oxo-1″,2″-dihydrodispiro[cyclohexane-1,2″-pyrrolidine-3′,3″-indole]-5′-carboxamide] gave an IC50 of 50 to 100 nM. Turning to `O=C(N[C@@H]1CC[C@@H](CO)OC1)[C@@H]1NC2(CC(CF)(CF)C2)[C@@]2(C(=O)Nc3cc(Cl)ccc32)[C@H]1c1ccc(F)c(Cl)c1F` [Example 172, (3′R,4′S,5′R)-6″-chloro-4′-(3-chloro-2,4-difluorophenyl)-3,3-bis(fluoromethyl)-N-[(3R,6S)-6-(hydroxymethyl)tetrahydro-2H-pyran-3-yl]-2′-oxo-1″,2″-dihydrodispiro[cyclobutane-1,2′-pyrrolidine-3′,3″-indole]-5′-carboxamide], the IC50 lay in the range of 1 to 50 nM. As for `COC(=O)[C@@H]1CC[C@@H](NC(=O)[C@@H]2NC3(CCC(C)(C)CC3)[C@@]3(C(=O)Nc4cc(Cl)ccc43)[C@H]2c2ccnc(Cl)c2F)CO1` [Example 173, Methyl (2S,5R)-5-({[(3′S,4′S,5′R)-6″-chloro-4′-(2-chloro-3-fluoropyridin-4-yl)-4,4-dimethyl-2″-oxo-1″,2″-dihydrodispiro[cyclohexane-1,2′-pyrrolidine-3′,3′-indole]-5′-yl]carbonyl}amino)tetrahydro-2H-pyran-2-carboxylate], the figure is 50 to 100 nM.

Turning to `O=C(N[C@@H]1CC[C@@H](CO)OC1)[C@@H]1NC2(CC(CF)(CF)C2)[C@@]2(C(=O)Nc3cc(Cl)ccc32)[C@H]1c1cccc(Cl)c1` [Example 175, (3′R, 4′R, 5′R)-6″-chloro-4′-(3-chlorophenyl)-3,3-bis(fluoromethyl)-N-[(3R,6S)-6-(hydroxymethyl)tetrahydro-2H-pyran-3-yl]-2″-oxo-1″,2″-dihydrodispiro[cyclobutane-1,2′-pyrrolidine-3′,3″-indole]-5′-carboxamide], the IC50 is 50 to 100 nM. Compound `O=C(N[C@@H]1CC[C@@H](CO)OC1)[C@@H]1NC2(CC(CF)(CF)C2)[C@@]2(C(=O)Nc3cc(Cl)ccc32)[C@H]1c1cc(F)cc(Cl)c1F` [Example 176, (3′R, 4′S,5′R)-6″-chloro-4′-(3-chloro-2,5-difluorophenyl)-3,3-bis(fluoromethyl)-N-[(3R,6S)-6-(hydroxymethyl)tetrahydro-2H-pyran-3-yl]-2″-oxo-1″,2″-dihydrodispiro[cyclobutane-1,2′-pyrrolidine-3′,3″-indole]-5′-carboxamide] yielded an IC50 of 1 to 50 nM. Then `CC1(C)CCC2(CC1)N[C@@H](C(=O)NC1CCN(c3nnn[nH]3)CC1)[C@H](c1ccnc(Cl)c1F)[C@]21C(=O)Nc2cc(Cl)ccc21` [Example 178, (3′R, 4′S,5′8)-6″-chloro-4′-(2-chloro-3-fluoropyridin-4-yl)-4,4-dimethyl-2″-oxo-N-[1-(1H-tetrazol-5-yl)piperidin-4-yl]-1″,2″-dihydrodispiro[cyclohexane-1,2′-pyrrolidine-3′,3″-indole]-5′-carboxamide], with 1 to 50 nM.

By IC50 is commonly meant the concentration that inhibits the measured activity by half. Low values mean inhibition by little substance, high ones a need for much substance.
